Measurements reported in US20150323548A1, “METHODS OF MONITORING THE MODULATION OF THE KINASE ACTIVITY OF FIBROBLAST GROWTH FACTOR RECEPTOR AND USES OF SAID METHODS” (Novartis AG, priority 2008, published 2015).
Where two headings read alike, the source gives them in different places.

How the values were obtained:
FGF23 [1] = settings: for mean plasma FGF23 increase over baseline: melanoma patients; for Increase of FGF23 levels over basal levels (up to): 400 mg daily
Method: Blood sampling was performed at the indicated day and cycle. FGF23 levels were measured in plasma. The values given for C1D1 are the baseline values.
(§1) Methods: Patients were treated orally with 200, 300, 400 or 500 mg/day on a once daily continuous dose schedule. […] Plasma samples from 43 patients were collected. […] Plasma FGF23 was evaluated by ELISA

clinical = settings: human, in vivo, po
Method: as §1

FGF23 [2] = assay: FGF23 ELISA in plasma of mRCC patients; type: in vivo, human
[3] = system: FRS2 tyrosine phosphorylation (read-out for FGFR activity); assay: Ex vivo FRS2 tyrosine phosphorylation in RT112 tumor xenografts in rats (Western blot); parameters: species or system rat; settings: single oral 10, 25 or 50 mg/kg; tumors dissected 3 h post-treatment
Method: FIG. 12 is a photograph showing the ex vivo analysis of RT112 tumor xenografts. Tumors were dissected 3 h after compound administration. Tumor tissue was lysed and FRS2 tyrosine phosphorylation levels were analysed by western blot using an antibody from Cell Signaling (#3864) that detects FRS2 when phosphorylated on Tyr196. As a loading control, membrane was probed with an antibody from Sigma (#T4026) that detects b-tubulin.
Compound Formulation and Animal Treatment. […] The application volumes were 5 ml/kg.
Ex vivo analysis of RT112 tumor xenografts: RT112 bladder cancer cells express high levels of FGFR3, the activity of which can be monitored in these cells by measuring changes in FRS2 tyrosine phosphorylation, a substrate of the FGFRs. The tumor material was pulverized using a swing mill (RETSCH, either MM2 or MM200). Aliquots of tumor powder (50 mg) were lysed in ice-chilled lysis buffer containing 50 mM Tris pH 7.5, 150 mM NaCl, 1 mM EGTA, 5 mM EDTA, 1% Triton, 2 mM NaVanadate, 1 mM PMSF and protease inhibitors cocktail Roche #11873580001). Lysates were clarified by centrifugation at 12000×g for 15 min and protein concentration was determined using the DC protein assay reagents (Bio Rad #500-0116) and a BSA standard. Total cell lysates were subjected to SDS-PAGE and proteins blotted onto PVDF membranes. […]

FGF23 [4] = assay: FGF23 ELISA in serum of wistar rats; type: in vivo, rat; settings: single oral 50 mg/kg; 24 h post administration; p<0.01
Method: Data are presented as means of n=6, ±SD.
Animals. Experiments were performed in female wistar rats furth WF/Ico
The application volumes were 5 ml/kg.
Blood samples were drawn sublingually at 24 h post-compound administration. Plasma, as well as serum samples were prepared from each blood sample.

[5] = system: phosphorylated and activated FGFR; assay: Immunohistochemistry of pFGFR in melanoma tumor biopsy; settings: melanoma patient, 400 mg, cycle 1 Day 15
FGF23 [6] = assay: FGF23 ELISA in serum of Rowett rats bearing RT112 xenografts; settings: single oral 10, 25, 50 mg/kg; 24 hours post dosing; p<0.01
Method: FGF23 levels were monitored using the FGF23 ELISA kit from Kainos, catalogue number CY-4000, and are expressed in pg/mL. Data are presented as means of n=4, ±SD. Data were compared by one-way Anova post-hoc Dunnett's versus vehicle.
Animals. Experiments were performed in female Rowett rats Hsd:RH-Foxlrnu. These athymic Nude-Rats were obtained from Harlan (The Netherlands)
Compound Formulation and Animal Treatment. […] Vehicle consisted of acetic acid-acetate buffer (pH 4.6)/PEG300 (2:1 v/v). The application volumes were 5 ml/kg.
Blood and tissue sampling for ex vivo analysis. Blood samples were drawn sublingually at 3 h, 7 h and 24 h post-compound administration. Plasma and as serum were prepared from each blood sample. At the same time points, tumors were dissected and snap frozen in liquid nitrogen.

[7] = Phase I clinical trial in metastatic renal cell carcinoma patients: PK, toxicity, efficacy

With `CN1CCN(c2ccc3nc(-c4c(N)c5c(F)cccc5[nH]c4=O)[nH]c3c2)CC1` [TKI258] the “FGF23” value (FGF23 [1]; Patient A, 200 mg daily oral, C1D15) was 39.8 pg/mL, the “FGF23” value (FGF23 [1]; Patient A, 200 mg daily oral, C1D26) was 24.4 pg/mL and the “FGF23” value (FGF23 [1]; Patient A, 200 mg daily oral, C3D26) was 31.8 pg/mL. The “FGF23” value (FGF23 [1]; Patient A, 200 mg daily oral, C6D26) was 21.1 pg/mL, the “FGF23” value (FGF23 [1]; Patient A, 200 mg daily oral, C9D26) was 39.6 pg/mL and the “FGF23” value (FGF23 [1]; Patient B, 400 mg daily oral, C1D15) was 94.1 pg/mL. The “FGF23” value (FGF23 [1]; Patient B, 400 mg daily oral, C3D26) was 88.5 pg/mL, the “FGF23” value (FGF23 [1]; Patient B, 400 mg daily oral, C4D26) was 141.5 pg/mL and the “FGF23” value (FGF23 [1]; Patient C, 400 mg daily oral, C1D15) was 86.5 pg/mL. For the same molecule, the “peak of FGF23 (day in first cycle of treatment)” value (FGF23 [1]; melanoma and metastatic renal cell carcinoma patients, 400 mg or 500 mg, preliminary observation) was about 15 days, the “mean plasma FGF23 increase over baseline” value (FGF23 [1]; day 15 of the first treatment cycle) was 63% and the “mean plasma FGF23 increase over baseline” value (FGF23 [1]; end of the first treatment cycle) was 68%. For the same molecule, the “plasma FGF23 increase over baseline” value (FGF23 [1]; one patient, 400 mg, Cycle 1 Day 15) was 98%, the “plasma FGF23 level” value (FGF23 [1]; one patient, 400 mg, Cycle 1 Day 15 (baseline level 40 pg/ml)) was “about 80 pg/ml” and the “Increase of FGF23 levels over basal levels (up to)” value (from here on “Increase of FGF23 levels”) (FGF23 [1]; patient B) was “up to 1.96 fold”. For the same molecule, the “Increase of FGF23 levels” value (FGF23 [1]; patient B, listed as TK1258) was at most 1.96 fold, the “Increase of FGF23 levels” value (FGF23 [1]; patient C) was at most 2.1 fold and the AUC(0-t) (clinical; 400 mg) was about 3000 ng·h/mL. For the same molecule, the AUC(0-t) (clinical; 500 mg) was about 4100 ng·h/mL, the “peak of FGF23 level (day of cycle 1)” value (FGF23 [2]; mRCC patients having increased FGF23) was about 15 days and the “increase of FGF23 level compared to the baseline level” value (FGF23 [2]; mRCC patients having increased FGF23, 500 mg/day) was 1.35-1.75. The “plasma FGF23 levels” value (FGF23 [2]; pts from the first 500 mg/day dosing cohort) was “Induction of plasma FGF23 levels”, the “FRS2 tyrosine phosphorylation in RT112 tumors” value [3] was “inhibited FRS2 tyrosine phosphorylation in a dose-dependent manner” and the “serum levels of FGF23 vs vehicle-treated group” value (FGF23 [4]) was “statistically significant increased in serum levels of FGF23”. The “pFGFR in tumor biopsy (immunohistochemistry)” value [5] was “significant pFGFR inhibition”, the “serum levels of FGF23 vs vehicle-treated group” value (FGF23 [6]) was “dose-dependent increased in serum levels of FGF23” and the “Preliminary evidence of efficacy (other responses)” value ([7]; mRCC patients) was 4 stable disease and 1 dramatic shrinkage/necrosis of some target lesions. For the same molecule, the “minor response (change at C4)” value ([7]; one mRCC patient, C4) was −17%.
